# Test results taken from the NIST ThermoML archive (doi:10.1021/je200637v).
# ± gives the expanded uncertainty stated by the source.
# Assay: activity coefficient (dimensionless); of the first substance listed, at infinite dilution; xn = mol fraction of the nth substance listed
# Settings: Liquid, Chromatography, x1 = 0
SMILES,activity coefficient (322.85 K),activity coefficient (332.65 K),activity coefficient (343.15 K)
CCCCCCCCCCC [undecane] + CCCCCCCC[N+](C)(C)C.O=S(=O)([N-]S(=O)(=O)C(F)(F)F)C(F)(F)F,25.8 ± 1.2,23.7 ± 1.1,21.1 ± 0.98
CCCCCCCCCCC [undecane] + CCCCCCCC[N+](CCCCCCCC)(CCCCCCCC)CCCCCCCC.O=S(=O)([N-]S(=O)(=O)C(F)(F)F)C(F)(F)F,,,2.54 ± 0.12
CCCCCCCCCCC [undecane] + CCCC[N+](C)(CCCC)CCCC.O=S(=O)([N-]S(=O)(=O)C(F)(F)F)C(F)(F)F,25.7 ± 1.2,24.8 ± 1.1,22.8 ± 1.1
